Results: the NIST ThermoML archive (doi:10.1021/je400332j)

Experiment: xn = mol fraction of the nth substance listed
Conditions: 101 kPa, Liquid; for viscosity: Concentric cylinders viscometry; for mass density: Vibrating tube method

CCCn1cc[n+](C)c1.F[B-](F)(F)F [1-propyl-3-methylimidazolium tetrafluoroborate] + CCCCCCn1cc[n+](C)c1.F[B-](F)(F)F
Conditions | mass density [kg/m3] | viscosity [mPa·s]
293.15 K, x1 = 0.1006 | 1154.7 | 257.8
293.15 K, x1 = 0.2005 | 1162.5 | 233.5
293.15 K, x1 = 0.2995 | 1170.4 | 212.7
293.15 K, x1 = 0.3996 | 1179.1 | 195.9
293.15 K, x1 = 0.4991 | 1188.1 | 176.5
293.15 K, x1 = 0.601 | 1197.2 | 158.4
293.15 K, x1 = 0.7001 | 1207.1 | 141.4
293.15 K, x1 = 0.8 | 1217.3 | 125.1
293.15 K, x1 = 0.8987 | 1228 | 110.2
293.15 K, x1 = 1 | 1239.3 | 95.44
298.15 K, x1 = 0.1006 | 1151.2 | 190.4
298.15 K, x1 = 0.2005 | 1159.1 | 173.1
298.15 K, x1 = 0.2995 | 1167.1 | 158.5
298.15 K, x1 = 0.3996 | 1175.6 | 146.3
298.15 K, x1 = 0.4991 | 1184.5 | 132.5
298.15 K, x1 = 0.601 | 1193.7 | 119.6
298.15 K, x1 = 0.7001 | 1203.6 | 107.2
298.15 K, x1 = 0.8 | 1213.9 | 95.66
298.15 K, x1 = 0.8987 | 1224.5 | 84.81
298.15 K, x1 = 1 | 1235.7 | 74.04
303.15 K, x1 = 0.1006 | 1147.8 | 143.5
303.15 K, x1 = 0.2005 | 1155.6 | 131.1
303.15 K, x1 = 0.2995 | 1163.5 | 120.5
303.15 K, x1 = 0.3996 | 1172 | 111.6
303.15 K, x1 = 0.4991 | 1181 | 101.6
303.15 K, x1 = 0.601 | 1190.2 | 92.16
303.15 K, x1 = 0.7001 | 1200 | 83.12
303.15 K, x1 = 0.8 | 1210.2 | 74.61
303.15 K, x1 = 0.8987 | 1220.8 | 66.57
303.15 K, x1 = 1 | 1232 | 58.59
308.15 K, x1 = 0.1006 | 1144.4 | 110.3
308.15 K, x1 = 0.2005 | 1152.1 | 101.2
308.15 K, x1 = 0.2995 | 1160.1 | 93.37
308.15 K, x1 = 0.3996 | 1168.6 | 86.79
308.15 K, x1 = 0.4991 | 1177.4 | 79.34
308.15 K, x1 = 0.601 | 1186.7 | 72.34
308.15 K, x1 = 0.7001 | 1196.4 | 65.59
308.15 K, x1 = 0.8 | 1206.6 | 59.23
308.15 K, x1 = 0.8987 | 1217.2 | 53.19
308.15 K, x1 = 1 | 1228.3 | 47.16
313.15 K, x1 = 0.1006 | 1141 | 86.32
313.15 K, x1 = 0.2005 | 1148.6 | 79.47
313.15 K, x1 = 0.2995 | 1156.6 | 73.61
313.15 K, x1 = 0.3996 | 1165.1 | 68.66
313.15 K, x1 = 0.4991 | 1173.9 | 63.07
313.15 K, x1 = 0.601 | 1183.2 | 57.75
313.15 K, x1 = 0.7001 | 1192.8 | 52.63
313.15 K, x1 = 0.8 | 1203 | 47.79
313.15 K, x1 = 0.8987 | 1213.5 | 43.19
313.15 K, x1 = 1 | 1224.7 | 38.56
318.15 K, x1 = 0.1006 | 1137.6 | 68.62
318.15 K, x1 = 0.2005 | 1145.2 | 63.43
318.15 K, x1 = 0.2995 | 1153.1 | 58.96
318.15 K, x1 = 0.3996 | 1161.6 | 55.18
318.15 K, x1 = 0.4991 | 1170.4 | 50.91
318.15 K, x1 = 0.601 | 1179.7 | 46.8
318.15 K, x1 = 0.7001 | 1189.3 | 42.87
318.15 K, x1 = 0.8 | 1199.4 | 39.14
318.15 K, x1 = 0.8987 | 1209.9 | 35.56
318.15 K, x1 = 1 | 1221 | 31.98
323.15 K, x1 = 0.1006 | 1134.2 | 55.36
323.15 K, x1 = 0.2005 | 1141.7 | 51.35
323.15 K, x1 = 0.2995 | 1149.6 | 47.9
323.15 K, x1 = 0.3996 | 1158.1 | 44.99
323.15 K, x1 = 0.4991 | 1166.9 | 41.66
323.15 K, x1 = 0.601 | 1176.1 | 38.47
323.15 K, x1 = 0.7001 | 1185.8 | 35.41
323.15 K, x1 = 0.8 | 1195.8 | 32.48
323.15 K, x1 = 0.8987 | 1206.2 | 29.67
323.15 K, x1 = 1 | 1217.4 | 26.83
328.15 K, x1 = 0.1006 | 1130.8 | 45.26
328.15 K, x1 = 0.2005 | 1138.3 | 42.13
328.15 K, x1 = 0.2995 | 1146.2 | 39.43
328.15 K, x1 = 0.3996 | 1154.7 | 37.15
328.15 K, x1 = 0.4991 | 1163.4 | 34.53
328.15 K, x1 = 0.601 | 1172.6 | 32.02
328.15 K, x1 = 0.7001 | 1182.3 | 29.61
328.15 K, x1 = 0.8 | 1192.1 | 27.28
328.15 K, x1 = 0.8987 | 1202.7 | 25.04
328.15 K, x1 = 1 | 1213.8 | 22.77
333.15 K, x1 = 0.1006 | 1127.4 | 37.44
333.15 K, x1 = 0.2005 | 1134.9 | 34.97
333.15 K, x1 = 0.2995 | 1142.7 | 32.83
333.15 K, x1 = 0.3996 | 1151.3 | 31.04
333.15 K, x1 = 0.4991 | 1159.9 | 28.95
333.15 K, x1 = 0.601 | 1169.2 | 26.95
333.15 K, x1 = 0.7001 | 1178.7 | 25.03
333.15 K, x1 = 0.8 | 1188.6 | 23.15
333.15 K, x1 = 0.8987 | 1199.1 | 21.37
333.15 K, x1 = 1 | 1210.2 | 19.54
338.15 K, x1 = 0.1006 | 1124.1 | 31.31
338.15 K, x1 = 0.2005 | 1131.5 | 29.33
338.15 K, x1 = 0.2995 | 1139.3 | 27.63
338.15 K, x1 = 0.3996 | 1147.8 | 26.21
338.15 K, x1 = 0.4991 | 1156.5 | 24.53
338.15 K, x1 = 0.601 | 1165.7 | 22.92
338.15 K, x1 = 0.7001 | 1175.2 | 21.38
338.15 K, x1 = 0.8 | 1185.2 | 19.85
338.15 K, x1 = 0.8987 | 1195.5 | 18.4
338.15 K, x1 = 1 | 1206.6 | 16.92
343.15 K, x1 = 0.1006 | 1120.7 | 26.45
343.15 K, x1 = 0.2005 | 1128.1 | 24.83
343.15 K, x1 = 0.2995 | 1135.9 | 23.46
343.15 K, x1 = 0.3996 | 1144.4 | 22.3
343.15 K, x1 = 0.4991 | 1153 | 20.96
343.15 K, x1 = 0.601 | 1162.2 | 19.65
343.15 K, x1 = 0.7001 | 1171.7 | 18.4
343.15 K, x1 = 0.8 | 1181.6 | 17.19
343.15 K, x1 = 0.8987 | 1192 | 15.98
343.15 K, x1 = 1 | 1203 | 14.77
